Measured values as given in patent publication US20250346592A1 (Celgene Corporation, priority 2022, published 2025).

Biological target: hPAD4 enzyme (Homo sapiens (Human), UniProt Q9UM07)
Assay: RFMS2 assay (RapidFire mass spectrometry, TSTGGRQGSHH peptide substrate)
Assay type: biochemical
Settings: 35 nM recombinant human PAD4, 500 μM TSTGGRQGSHH peptide, 30 minutes at room temperature; read-out: RFMS 2 IC50
Protocol: Stock compounds were dissolved and stored in 100% DMSO. Compound solutions were prepared via serial dilution at 3-fold intervals in DMSO with top compound concentration at 20 μM in each assay. 0.25 μl of compound solution was transferred from the compound plate to the assay plate by using an acoustic dispenser.
• Total reaction volume: 25 μl • Assay buffer: […] pH 7.4, 200 mM NaCl, 2 mM CaCl2, 5 mM DTT • 35 nM recombinant human PAD4 • 500 μM TSTGGRQGSHH peptide • 1.2% DMSO • Stop solution: 10% formic acid
Reaction mixtures were incubated at room temperature for 30 minutes. 10 μl each of the reaction mixtures was then mixed with 40 μl of 10% formic acid in a microtiter plate. The plate was frozen at −80° C. before shipping out on dry ice for RapidFire mass spectroscopy analysis.
Thawed samples were loaded onto the Rapid Fire 300 system (Agilent) wherein they were first sipped for 250 ms and then loaded onto a Agilent “C” (C18) cartridge using a mobile phase of water containing 0.09% formic acid/0.01% trifluoroacetic acid for 3000 ms desalting flowing at a rate of 1.5 ml/min. Once the samples were loaded and washed, a mobile phase of acetonitrile containing 0.09% formic acid/0.01% trifluoroacetic acid was used to elute the samples directly onto a Sciex API4000 triple quadrupole mass spectrometer for 3000 ms at a flow rate of 1.25 ml/min.
MRM transitions for substrate and product were monitored in positive ESI mode at m/z=562.3/969.7 and m/z=562.8/541.3 respectively. The dwell time for each transition was set at 100 ms, and the ESI voltage was used at 5500 with a source temperature of 650° C. Extracted ion peaks for each transition were integrated using the Rapid Fire Integrator software.
Compounds having an activity designated as “A” provided an IC50≤10 nM; compounds having an activity designated as “B” provided an IC50 11-100 nM; compounds having an activity designated as “C” provided an IC50 101-500 nM; compounds having an activity designated as “D” provided an IC50 501-1000 nM; compounds having an activity designated as “E” provided an IC50>1000 nM.

hPAD4 enzyme, sequence (Q9UM07 whole entry): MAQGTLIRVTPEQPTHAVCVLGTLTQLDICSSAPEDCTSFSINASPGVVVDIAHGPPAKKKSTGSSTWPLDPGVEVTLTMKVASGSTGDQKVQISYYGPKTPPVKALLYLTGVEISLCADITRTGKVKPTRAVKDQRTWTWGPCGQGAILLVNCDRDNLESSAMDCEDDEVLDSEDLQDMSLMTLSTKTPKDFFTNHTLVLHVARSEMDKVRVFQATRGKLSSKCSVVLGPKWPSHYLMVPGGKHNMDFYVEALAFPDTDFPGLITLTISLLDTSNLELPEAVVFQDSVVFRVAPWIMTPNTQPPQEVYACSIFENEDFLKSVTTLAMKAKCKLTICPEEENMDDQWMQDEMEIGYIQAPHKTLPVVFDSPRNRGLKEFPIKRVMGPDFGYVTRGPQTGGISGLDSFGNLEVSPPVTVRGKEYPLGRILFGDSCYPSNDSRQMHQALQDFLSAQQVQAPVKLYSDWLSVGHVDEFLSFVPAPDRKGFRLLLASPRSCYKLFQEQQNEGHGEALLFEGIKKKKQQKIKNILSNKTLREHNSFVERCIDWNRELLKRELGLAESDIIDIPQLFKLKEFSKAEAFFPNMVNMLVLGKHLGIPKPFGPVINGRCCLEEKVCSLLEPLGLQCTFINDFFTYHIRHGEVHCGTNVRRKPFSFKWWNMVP

IC50 | Structure (SMILES)
101 to 500 nM | C[C@@H](N)CN1CCc2cc3c(cc2C1=O)nc(-c1cc2ccc(C#N)cc2n1CC1CC1)n3C [Example 32]
101 to 500 nM | C[C@@H](N)CN1CCc2cc3c(cc2C1=O)nc(-c1cc2cccc(Cl)c2n1CC1CC1)n3C [Example 33, (R)-6-(2-aminopropyl)-2-(7-chloro-1-(cyclopropylmethyl)-1H-indol-2-yl)-1-methyl-1,6,7,8-tetrahydro-5H-imidazo[4,5-g]isoquinolin-5-one]
501 to 1000 nM | C[C@@H](N)CN1CCc2cc3c(cc2C1=O)nc(-c1cc2cc(Cl)ccc2n1CC1CC1)n3C [Example 34, (R)-6-(2-aminopropyl)-2-(5-chloro-1-(cyclopropylmethyl)-1H-indol-2-yl)-1-methyl-1,6,7,8-tetrahydro-5H-imidazo[4,5-g]isoquinolin-5-one]
501 to 1000 nM | C[C@@H](N)CN1CCc2cc3c(cc2C1=O)nc(-c1cc2cccc(C(F)(F)F)c2n1CC1CC1)n3C [Example 36, (R)-6-(2-aminopropyl)-2-(1-(cyclopropylmethyl)-7-(trifluoromethyl)-1H-indol-2-yl)-1-methyl-1,6,7,8-tetrahydro-5H-imidazo[4,5-g]isoquinolin-5-one]
101 to 500 nM | CN[C@H](C)CN1CCc2cc3c(cc2C1=O)nc(-c1cc2cccc(OC)c2n1CC1CC1)n3C [Example 37, (R)-2-(1-(cyclopropylmethyl)-7-methoxy-1H-indol-2-yl)-1-methyl-6-(2-(methylamino)propyl)-1,6,7,8-tetrahydro-5H-imidazo[4,5-g]isoquinolin-5-one]
101 to 500 nM | CC(C)c1ccc2cc(-c3nc4cc5c(cc4n3C)CCN(C[C@@H](C)N)C5=O)n(CC3CC3)c2c1 [Example 38, (R)-6-(2-aminopropyl)-2-(1-(cyclopropylmethyl)-6-isopropyl-1H-indol-2-yl)-1-methyl-1,6,7,8-tetrahydro-5H-imidazo[4,5-g]isoquinolin-5-one]
101 to 500 nM | CCc1ccc2cc(-c3nc4cc5c(cc4n3C)CCN(C[C@@H](C)N)C5=O)n(CC3CC3)c2c1 [Example 39, (R)-6-(2-aminopropyl)-2-(1-(cyclopropylmethyl)-6-ethyl-1H-indol-2-yl)-1-methyl-1,6,7,8-tetrahydro-5H-imidazo[4,5-g]isoquinolin-5-one]
501 to 1000 nM | C[C@@H](N)CN1CCc2cc3c(cc2C1=O)nc(-c1cc2ccc(C4COC4)cc2n1CC1CC1)n3C [Example 42, (R)-6-(2-aminopropyl)-2-(1-(cyclopropylmethyl)-6-(oxetan-3-yl)-1H-indol-2-yl)-1-methyl-1,6,7,8-tetrahydro-5H-imidazo[4,5-g]isoquinolin-5-one]
101 to 500 nM | C[C@@H](N)CN1CCc2cc3c(cc2C1=O)nc(-c1cc2ccc(Cl)nc2n1CC1CC1)n3C [Example 43, (R)-6-(2-aminopropyl)-2-(6-chloro-1-(cyclopropylmethyl)-1H-pyrrolo[2,3-b]pyridin-2-yl)-1-methyl-1,6,7,8-tetrahydro-5H-imidazo[4,5-g]isoquinolin-5-one]
101 to 500 nM | COc1ccc2cc(-c3nc4cc5c(cc4n3C)CCN(C[C@@H](C)N)C5=O)n(CC3CC3)c2n1 [Example 44, (R)-6-(2-aminopropyl)-2-(1-(cyclopropylmethyl)-6-methoxy-1H-pyrrolo[2,3-b]pyridin-2-yl)-1-methyl-1,6,7,8-tetrahydro-5H-imidazo[4,5-g]isoquinolin-5-one]
> 1000 nM | C[C@@H](N)CN1CCc2cc3c(cc2C1=O)nc(-c1cc2ccc(=O)[nH]c2n1CC1CC1)n3C [Example 45, (R)-6-(2-aminopropyl)-2-(1-(cyclopropylmethyl)-6-oxo-6,7-dihydro-1H-pyrrolo[2,3-b]pyridin-2-yl)-1-methyl-1,6,7,8-tetrahydro-5H-imidazo[4,5-g]isoquinolin-5-one]
501 to 1000 nM | C[C@@H](N)CN1CCc2cc3c(cc2C1=O)nc(-c1c(F)c2ccccc2n1CC1CC1)n3C [Example 46, (R)-6-(2-aminopropyl)-2-(1-(cyclopropylmethyl)-3-fluoro-1H-indol-2-yl)-1-methyl-1,6,7,8-tetrahydro-5H-imidazo[4,5-g]isoquinolin-5-one]
101 to 500 nM | Cc1ccc2cc(-c3nc4cc5c(cc4n3C)CCN(C[C@H](N)CF)C5=O)n(CC3CC3)c2c1 [Example 47, (S)-6-(2-amino-3-fluoropropyl)-2-(1-(cyclopropylmethyl)-6-methyl-1H-indol-2-yl)-1-methyl-1,6,7,8-tetrahydro-5H-imidazo[4,5-g]isoquinolin-5-one]
> 1000 nM | Cn1c(-c2cc3cccnc3n2CC2CC2)nc2cc3c(cc21)CCN(C[C@H](N)CF)C3=O [Example 49, (S)-6-(2-amino-3-fluoropropyl)-2-(1-(cyclopropylmethyl)-1H-pyrrolo[2,3-b]pyridin-2-yl)-1-methyl-1,6,7,8-tetrahydro-5H-imidazo[4,5-g]isoquinolin-5-one]
101 to 500 nM | COc1ccc2cc(-c3nc4cc5c(cc4n3C)CCN(C[C@H](N)CF)C5=O)n(CC3CC3)c2c1 [Example 50, (S)-6-(2-amino-3-fluoropropyl)-2-(1-(cyclopropylmethyl)-6-methoxy-1H-indol-2-yl)-1-methyl-1,6,7,8-tetrahydro-5H-imidazo[4,5-g]isoquinolin-5-one]
101 to 500 nM | CC(C)c1ccc2cc(-c3nc4cc5c(cc4n3C)CCN(C[C@H](N)CF)C5=O)n(CC3CC3)c2c1 [Example 51, (S)-6-(2-amino-3-fluoropropyl)-2-(1-(cyclopropylmethyl)-6-isopropyl-1H-indol-2-yl)-1-methyl-1,6,7,8-tetrahydro-5H-imidazo[4,5-g]isoquinolin-5-one]
> 1000 nM | Cn1c(-c2cc3ccncc3n2CC2CC2)nc2cc3c(cc21)CCN(C[C@H](N)CF)C3=O [Example 52, (S)-6-(2-amino-3-fluoropropyl)-2-(1-(cyclopropylmethyl)-1H-pyrrolo[2,3-c]pyridin-2-yl)-1-methyl-1,6,7,8-tetrahydro-5H-imidazo[4,5-g]isoquinolin-5-one]
501 to 1000 nM | COc1nccc2cc(-c3nc4cc5c(cc4n3C)CCN(C[C@H](N)CF)C5=O)n(CC3CC3)c12 [Example 54, (S)-6-(2-amino-3-fluoropropyl)-2-(1-(cyclopropylmethyl)-7-methoxy-1H-pyrrolo[2,3-c]pyridin-2-yl)-1-methyl-1,6,7,8-tetrahydro-5H-imidazo[4,5-g]isoquinolin-5-one]
501 to 1000 nM | Cn1c(-c2cc3ccc(C(C)(C)C)cc3n2CC2CC2)nc2cc3c(cc21)CCN(C[C@H](N)CF)C3=O [Example 55, (S)-6-(2-amino-3-fluoropropyl)-2-(6-(tert-butyl)-1-(cyclopropylmethyl)-1H-indol-2-yl)-1-methyl-1,6,7,8-tetrahydro-5H-imidazo[4,5-g]isoquinolin-5-one]
101 to 500 nM | Cn1c(-c2cc3ccc(Cl)nc3n2CC2CC2)nc2cc3c(cc21)CCN(C[C@H](N)CF)C3=O [Example 56, (S)-6-(2-amino-3-fluoropropyl)-2-(6-chloro-1-(cyclopropylmethyl)-1H-pyrrolo[2,3-b]pyridin-2-yl)-1-methyl-1,6,7,8-tetrahydro-5H-imidazo[4,5-g]isoquinolin-5-one]
101 to 500 nM | Cn1c(-c2cc3ccc(C4CC4)nc3n2CC2CC2)nc2cc3c(cc21)CCN(C[C@H](N)CF)C3=O [Example 59, (S)-6-(2-amino-3-fluoropropyl)-2-(6-cyclopropyl-1-(cyclopropylmethyl)-1H-pyrrolo[2,3-b]pyridin-2-yl)-1-methyl-1,6,7,8-tetrahydro-5H-imidazo[4,5-g]isoquinolin-5-one]
101 to 500 nM | COc1ccc2cc(-c3nc4cc5c(cc4n3C)CCN(C[C@H](N)CF)C5=O)n(CC3CC3)c2n1 [Example 62, (S)-6-(2-amino-3-fluoropropyl)-2-(1-(cyclopropylmethyl)-6-methoxy-1H-pyrrolo[2,3-b]pyridin-2-yl)-1-methyl-1,6,7,8-tetrahydro-H-imidazo[4,5-g]isoquinolin-5-one]
501 to 1000 nM | CNC(=O)c1ccc2cc(-c3nc4cc5c(cc4n3C)CCN(C[C@H](N)CF)C5=O)n(CC3CC3)c2n1 [Example 63, (S)-2-(6-(2-amino-3-fluoropropyl)-1-methyl-5-oxo-5,6,7,8-tetrahydro-1H-imidazo[4,5-g]isoquinolin-2-yl)-1-(cyclopropylmethyl)-N-methyl-1H-pyrrolo[2,3-b]pyridine-6-carboxamide]
501 to 1000 nM | CN(C)C(=O)c1ccc2cc(-c3nc4cc5c(cc4n3C)CCN(C[C@H](N)CF)C5=O)n(CC3CC3)c2n1 [Example 64, (S)-2-(6-(2-amino-3-fluoropropyl)-1-methyl-5-oxo-5,6,7,8-tetrahydro-1H-imidazo[4,5-g]isoquinolin-2-yl)-1-(cyclopropylmethyl)-N,N-dimethyl-1H-pyrrolo[2,3-b]pyridine-6-carboxamide]
